By inhibition is commonly meant how much of the control response was suppressed.

Consider three compounds from ChEMBL document CHEMBL5653631, “A Potent and Selective ULK1 Inhibitor Suppresses Autophagy and Sensitizes Cancer Cells to Nutrient Stress” (iScience, 2018).

Test [1] addresses Mitogen-activated protein kinase kinase kinase 10 (Homo sapiens) (UniProt Q02779). Briefly: Inhibition of human recombinant MLK2 at 15 nM related to control ULK1.
The target in test [2] is T1, Serine/threonine-protein kinase D3 (Homo sapiens) (UniProt O94806).
T1 sequence (whole entry): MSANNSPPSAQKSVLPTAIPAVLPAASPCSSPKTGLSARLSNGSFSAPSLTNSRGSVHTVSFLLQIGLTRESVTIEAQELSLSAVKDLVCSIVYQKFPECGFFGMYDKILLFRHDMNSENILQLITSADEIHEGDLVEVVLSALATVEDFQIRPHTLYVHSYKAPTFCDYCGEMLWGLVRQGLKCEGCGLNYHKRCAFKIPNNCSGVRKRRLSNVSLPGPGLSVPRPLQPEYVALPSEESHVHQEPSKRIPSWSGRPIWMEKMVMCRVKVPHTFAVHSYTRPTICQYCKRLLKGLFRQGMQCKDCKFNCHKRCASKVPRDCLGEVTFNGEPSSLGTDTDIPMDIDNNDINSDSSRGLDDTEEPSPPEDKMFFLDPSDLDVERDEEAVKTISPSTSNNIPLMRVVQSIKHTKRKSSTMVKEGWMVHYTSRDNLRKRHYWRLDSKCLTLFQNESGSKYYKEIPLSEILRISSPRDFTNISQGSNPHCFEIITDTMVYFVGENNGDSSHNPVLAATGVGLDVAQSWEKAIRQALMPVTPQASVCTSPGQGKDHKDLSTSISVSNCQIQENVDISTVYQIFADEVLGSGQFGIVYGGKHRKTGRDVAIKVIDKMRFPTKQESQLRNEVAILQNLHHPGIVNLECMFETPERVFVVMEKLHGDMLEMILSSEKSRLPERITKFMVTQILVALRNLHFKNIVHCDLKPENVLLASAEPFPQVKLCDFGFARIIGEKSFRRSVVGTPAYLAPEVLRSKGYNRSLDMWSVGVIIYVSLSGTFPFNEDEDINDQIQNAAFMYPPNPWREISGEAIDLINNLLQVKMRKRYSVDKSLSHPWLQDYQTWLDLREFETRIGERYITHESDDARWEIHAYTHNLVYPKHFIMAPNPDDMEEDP
Briefly: Inhibition of human recombinant PKD3 at 15 nM related to control ULK1.

Test [3] deals with T2, Phosphorylase b kinase gamma catalytic chain, liver/testis isoform (Homo sapiens) (UniProt P15735).
T2 sequence (whole entry): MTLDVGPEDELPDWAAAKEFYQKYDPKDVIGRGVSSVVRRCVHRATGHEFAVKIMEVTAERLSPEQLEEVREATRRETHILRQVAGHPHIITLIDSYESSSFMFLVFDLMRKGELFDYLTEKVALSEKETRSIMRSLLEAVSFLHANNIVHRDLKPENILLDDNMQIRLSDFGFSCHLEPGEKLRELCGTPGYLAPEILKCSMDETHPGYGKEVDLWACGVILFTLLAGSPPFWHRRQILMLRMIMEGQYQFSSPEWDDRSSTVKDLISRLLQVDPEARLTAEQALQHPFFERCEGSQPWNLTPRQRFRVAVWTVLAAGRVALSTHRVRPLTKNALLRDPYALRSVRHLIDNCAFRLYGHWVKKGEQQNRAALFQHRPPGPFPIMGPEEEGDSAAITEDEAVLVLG
Briefly: Inhibition of human recombinant PHKg2 at 15 nM in presence of ATP by radiometric assay relative to control.

For test [4], the target named is Glycogen synthase kinase-3 beta (Homo sapiens) (UniProt P49841). In words: Inhibition of human recombinant GSK3B at 40 nM in presence of ATP by radiometric assay relative to control.
The target in test [5] is TGF-beta receptor type-2 (Homo sapiens) (UniProt P37173). Briefly: Inhibition of human recombinant TGFbR2 at 40 nM in presence of ATP by radiometric assay relative to control.
For test [6], the target named is Ephrin type-A receptor 5 (Homo sapiens) (UniProt P54756). Briefly: Inhibition of human recombinant EphA5 at 40 nM in presence of ATP by radiometric assay relative to control.
In test [7] the target is Tau-tubulin kinase 1 (Homo sapiens) (UniProt Q5TCY1). Briefly: Inhibition of human recombinant TTBK1 at 40 nM in presence of ATP by radiometric assay relative to control.
Test [8] concerns the target Insulin receptor (Homo sapiens) (UniProt P06213). In words: Inhibition of human recombinant INSR at 40 nM in presence of ATP by radiometric assay relative to control.
Test [9] has as its target Serine/threonine-protein kinase PRP4 homolog (Homo sapiens) (UniProt Q13523). In words: Inhibition of human recombinant PRP4 at 40 nM in presence of ATP by radiometric assay relative to control.
Test [10] deals with T3, Serine/threonine-protein kinase Nek2 (Homo sapiens) (UniProt P51955).
T3 sequence (whole entry): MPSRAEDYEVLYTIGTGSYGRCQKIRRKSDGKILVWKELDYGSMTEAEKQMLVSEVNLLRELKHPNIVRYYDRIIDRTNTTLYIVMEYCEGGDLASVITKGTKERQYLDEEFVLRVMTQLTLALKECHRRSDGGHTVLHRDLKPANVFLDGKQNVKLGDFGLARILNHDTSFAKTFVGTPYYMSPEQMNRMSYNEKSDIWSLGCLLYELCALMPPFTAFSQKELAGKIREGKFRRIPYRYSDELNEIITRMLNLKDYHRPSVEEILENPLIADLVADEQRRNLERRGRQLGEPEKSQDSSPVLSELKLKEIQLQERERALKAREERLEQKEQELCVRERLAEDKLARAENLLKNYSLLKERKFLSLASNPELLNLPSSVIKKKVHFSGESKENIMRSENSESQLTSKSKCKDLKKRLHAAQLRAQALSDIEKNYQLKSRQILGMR
Briefly: Inhibition of human recombinant NEK2 at 500 nM related to control ULK1.

Test [11] concerns the target Dual specificity tyrosine-phosphorylation-regulated kinase 1B (Homo sapiens) (UniProt Q9Y463). Briefly: Inhibition of human recombinant DYRK1B at 500 nM related to control ULK1.
For test [12], the target named is Insulin-like growth factor 1 receptor (Homo sapiens) (UniProt P08069). In words: Inhibition of human recombinant IGF1R at 500 nM in presence of ATP by radiometric assay relative to control.

Serine/threonine-protein kinase PRP4 homolog (Homo sapiens), sequence (Q13523 whole entry): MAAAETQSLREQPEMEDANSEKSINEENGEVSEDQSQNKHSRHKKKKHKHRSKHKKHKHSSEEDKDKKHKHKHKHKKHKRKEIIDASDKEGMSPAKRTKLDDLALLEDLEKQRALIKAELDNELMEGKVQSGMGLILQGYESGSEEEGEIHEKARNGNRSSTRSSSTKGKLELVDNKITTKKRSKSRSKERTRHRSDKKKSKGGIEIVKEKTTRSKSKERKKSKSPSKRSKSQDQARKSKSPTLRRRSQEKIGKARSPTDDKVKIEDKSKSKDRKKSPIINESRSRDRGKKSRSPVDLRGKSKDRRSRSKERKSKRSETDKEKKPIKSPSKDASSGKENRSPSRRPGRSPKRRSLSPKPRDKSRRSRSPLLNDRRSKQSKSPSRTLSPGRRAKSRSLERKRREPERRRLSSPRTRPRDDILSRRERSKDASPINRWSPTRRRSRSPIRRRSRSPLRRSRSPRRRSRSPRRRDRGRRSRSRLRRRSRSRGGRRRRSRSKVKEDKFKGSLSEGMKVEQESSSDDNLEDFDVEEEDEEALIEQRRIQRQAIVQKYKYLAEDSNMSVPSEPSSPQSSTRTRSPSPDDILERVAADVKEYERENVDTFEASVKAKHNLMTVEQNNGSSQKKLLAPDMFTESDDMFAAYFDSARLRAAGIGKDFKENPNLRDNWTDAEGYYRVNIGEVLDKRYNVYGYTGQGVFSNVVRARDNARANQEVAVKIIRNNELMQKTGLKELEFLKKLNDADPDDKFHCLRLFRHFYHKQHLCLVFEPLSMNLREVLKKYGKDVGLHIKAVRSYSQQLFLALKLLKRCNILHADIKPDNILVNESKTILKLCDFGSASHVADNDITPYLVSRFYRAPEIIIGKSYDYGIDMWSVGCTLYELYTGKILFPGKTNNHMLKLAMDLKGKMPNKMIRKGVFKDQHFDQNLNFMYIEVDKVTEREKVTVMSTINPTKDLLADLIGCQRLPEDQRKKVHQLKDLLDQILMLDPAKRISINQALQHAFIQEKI
Insulin receptor (Homo sapiens), sequence (P06213 28-758 limits assumed): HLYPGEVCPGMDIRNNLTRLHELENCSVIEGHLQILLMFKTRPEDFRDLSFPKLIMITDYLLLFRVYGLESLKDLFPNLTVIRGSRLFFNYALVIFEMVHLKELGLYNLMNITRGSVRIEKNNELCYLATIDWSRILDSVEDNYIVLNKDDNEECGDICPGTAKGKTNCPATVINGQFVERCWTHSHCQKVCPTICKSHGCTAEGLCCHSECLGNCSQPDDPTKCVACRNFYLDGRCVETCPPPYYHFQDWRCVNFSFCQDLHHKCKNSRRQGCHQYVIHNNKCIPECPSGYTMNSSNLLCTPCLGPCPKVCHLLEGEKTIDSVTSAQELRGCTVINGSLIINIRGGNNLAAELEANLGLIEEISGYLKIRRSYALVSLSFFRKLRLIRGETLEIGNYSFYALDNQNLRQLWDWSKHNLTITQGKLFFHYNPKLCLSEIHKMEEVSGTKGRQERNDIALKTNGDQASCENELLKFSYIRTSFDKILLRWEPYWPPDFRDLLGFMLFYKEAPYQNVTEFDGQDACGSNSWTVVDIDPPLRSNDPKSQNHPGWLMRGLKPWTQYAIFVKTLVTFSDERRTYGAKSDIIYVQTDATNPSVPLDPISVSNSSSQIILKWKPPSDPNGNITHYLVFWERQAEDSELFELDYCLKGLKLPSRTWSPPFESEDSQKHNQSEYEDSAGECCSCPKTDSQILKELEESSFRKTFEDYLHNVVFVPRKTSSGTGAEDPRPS
Insulin receptor (Homo sapiens), sequence (P06213 763-1382 limits assumed): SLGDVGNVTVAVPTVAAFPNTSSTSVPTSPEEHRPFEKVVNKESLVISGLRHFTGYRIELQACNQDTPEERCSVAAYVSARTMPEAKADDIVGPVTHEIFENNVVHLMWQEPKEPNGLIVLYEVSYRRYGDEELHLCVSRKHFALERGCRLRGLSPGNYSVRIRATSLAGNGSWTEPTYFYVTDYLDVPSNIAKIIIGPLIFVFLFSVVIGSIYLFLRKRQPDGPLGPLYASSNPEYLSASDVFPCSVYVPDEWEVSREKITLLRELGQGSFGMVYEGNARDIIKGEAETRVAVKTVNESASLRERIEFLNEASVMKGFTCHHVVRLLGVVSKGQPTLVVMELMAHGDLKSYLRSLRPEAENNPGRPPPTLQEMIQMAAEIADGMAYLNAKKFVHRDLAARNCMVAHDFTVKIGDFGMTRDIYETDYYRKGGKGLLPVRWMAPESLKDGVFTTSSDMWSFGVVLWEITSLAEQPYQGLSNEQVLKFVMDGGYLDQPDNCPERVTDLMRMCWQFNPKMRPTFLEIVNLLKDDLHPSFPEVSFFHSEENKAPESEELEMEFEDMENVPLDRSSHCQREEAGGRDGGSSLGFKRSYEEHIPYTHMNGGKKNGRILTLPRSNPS
Glycogen synthase kinase-3 beta (Homo sapiens), sequence (P49841 whole entry, looked up): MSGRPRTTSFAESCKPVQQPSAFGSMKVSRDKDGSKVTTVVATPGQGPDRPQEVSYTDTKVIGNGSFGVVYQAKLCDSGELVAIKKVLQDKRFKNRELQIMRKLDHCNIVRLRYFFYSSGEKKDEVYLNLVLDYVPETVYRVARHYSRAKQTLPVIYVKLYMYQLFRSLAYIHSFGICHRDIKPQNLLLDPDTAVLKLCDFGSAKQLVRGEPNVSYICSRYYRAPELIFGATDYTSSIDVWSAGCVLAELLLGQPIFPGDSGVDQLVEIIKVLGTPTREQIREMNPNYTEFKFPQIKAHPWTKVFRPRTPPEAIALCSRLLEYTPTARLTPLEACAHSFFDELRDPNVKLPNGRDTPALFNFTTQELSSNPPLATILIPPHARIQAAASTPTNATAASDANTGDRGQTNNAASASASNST
Mitogen-activated protein kinase kinase kinase 10 (Homo sapiens), sequence (Q02779 whole entry, looked up): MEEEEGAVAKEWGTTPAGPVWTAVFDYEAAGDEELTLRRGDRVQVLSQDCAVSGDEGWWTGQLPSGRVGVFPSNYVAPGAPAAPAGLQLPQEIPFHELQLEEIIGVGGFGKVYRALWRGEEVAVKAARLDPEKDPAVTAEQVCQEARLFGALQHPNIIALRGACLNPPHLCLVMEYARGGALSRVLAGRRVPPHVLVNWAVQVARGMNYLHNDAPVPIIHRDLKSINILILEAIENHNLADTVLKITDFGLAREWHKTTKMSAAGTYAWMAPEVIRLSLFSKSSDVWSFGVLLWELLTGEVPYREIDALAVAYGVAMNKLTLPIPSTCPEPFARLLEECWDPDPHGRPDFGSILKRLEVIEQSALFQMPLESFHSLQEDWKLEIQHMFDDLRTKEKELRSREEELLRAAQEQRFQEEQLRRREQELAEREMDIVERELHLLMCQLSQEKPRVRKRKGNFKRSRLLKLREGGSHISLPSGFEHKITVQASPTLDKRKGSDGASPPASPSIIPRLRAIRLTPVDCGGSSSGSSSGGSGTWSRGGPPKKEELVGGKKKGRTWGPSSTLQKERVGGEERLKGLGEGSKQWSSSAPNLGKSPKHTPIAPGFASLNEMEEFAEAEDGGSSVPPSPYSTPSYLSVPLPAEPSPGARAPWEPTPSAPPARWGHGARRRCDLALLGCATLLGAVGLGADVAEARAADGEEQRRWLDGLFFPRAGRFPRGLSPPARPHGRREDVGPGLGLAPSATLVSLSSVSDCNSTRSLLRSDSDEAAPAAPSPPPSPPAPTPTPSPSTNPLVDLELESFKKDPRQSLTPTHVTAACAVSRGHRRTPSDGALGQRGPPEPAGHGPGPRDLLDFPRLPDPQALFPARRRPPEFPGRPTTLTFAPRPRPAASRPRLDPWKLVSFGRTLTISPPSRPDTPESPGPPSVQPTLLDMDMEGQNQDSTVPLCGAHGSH
Dual specificity tyrosine-phosphorylation-regulated kinase 1B (Homo sapiens), sequence (Q9Y463 whole entry, looked up): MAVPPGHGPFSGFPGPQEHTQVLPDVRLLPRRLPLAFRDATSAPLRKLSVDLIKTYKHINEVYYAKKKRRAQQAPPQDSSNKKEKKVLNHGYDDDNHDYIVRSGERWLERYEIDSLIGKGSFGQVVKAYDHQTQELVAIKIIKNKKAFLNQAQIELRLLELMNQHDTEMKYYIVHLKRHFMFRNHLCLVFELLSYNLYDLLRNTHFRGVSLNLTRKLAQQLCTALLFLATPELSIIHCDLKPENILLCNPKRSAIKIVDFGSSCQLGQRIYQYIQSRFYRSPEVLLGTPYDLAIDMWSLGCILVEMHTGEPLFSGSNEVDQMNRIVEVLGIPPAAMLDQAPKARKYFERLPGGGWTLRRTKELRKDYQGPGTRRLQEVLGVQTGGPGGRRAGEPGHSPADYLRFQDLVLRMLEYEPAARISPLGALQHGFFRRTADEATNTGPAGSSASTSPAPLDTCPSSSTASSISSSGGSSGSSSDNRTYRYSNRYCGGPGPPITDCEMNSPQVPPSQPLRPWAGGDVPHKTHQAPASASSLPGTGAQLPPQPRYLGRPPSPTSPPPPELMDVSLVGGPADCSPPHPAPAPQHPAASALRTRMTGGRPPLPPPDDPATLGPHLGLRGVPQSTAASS
TGF-beta receptor type-2 (Homo sapiens), sequence (P37173 whole entry): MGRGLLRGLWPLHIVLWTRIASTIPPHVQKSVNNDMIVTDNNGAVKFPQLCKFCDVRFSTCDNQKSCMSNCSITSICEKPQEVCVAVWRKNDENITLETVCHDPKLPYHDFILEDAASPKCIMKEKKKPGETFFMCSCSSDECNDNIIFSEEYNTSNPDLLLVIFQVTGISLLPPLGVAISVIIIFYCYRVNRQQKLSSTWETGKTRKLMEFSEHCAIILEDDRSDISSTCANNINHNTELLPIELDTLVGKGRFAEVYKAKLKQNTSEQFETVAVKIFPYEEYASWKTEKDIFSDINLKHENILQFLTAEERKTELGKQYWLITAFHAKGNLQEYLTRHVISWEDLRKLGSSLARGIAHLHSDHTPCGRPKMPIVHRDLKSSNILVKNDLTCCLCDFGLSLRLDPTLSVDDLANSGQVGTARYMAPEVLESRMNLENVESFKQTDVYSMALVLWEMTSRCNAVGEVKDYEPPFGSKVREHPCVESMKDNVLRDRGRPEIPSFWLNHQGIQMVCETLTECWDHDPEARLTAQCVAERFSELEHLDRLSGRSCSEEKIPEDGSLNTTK

For `CC(C)[C@H](NC(=O)c1cc(-c2cnn3cc(-c4ccc(OCCN5CCCCC5)cc4)cnc23)cs1)C(F)(F)F`, the fold change (FC) is 0.14 in [1] and 0.08 in test [2]. In addition, in test [3], the inhibition came out at 9%.
For the compound `O=C(N[C@@H](C1CC1)C(F)(F)F)c1cc(-c2cnn3cc(-c4ccc(F)cc4)cnc23)cs1`, the inhibition in [4] is 0%; in test [5] it was 47%; in test [6] it was 0%; in [7] it was 0%; in test [8], 0%; in test [9], 6%.
For `CNC(=O)c1ccccc1Oc1nc(Nc2cc(OC)c(OC)c(OC)c2)ncc1Br`, the fold change (FC) in [10] and in test [11] was 0 throughout. Also, in test [12], the inhibition turned out to be 3%.
